Like-named read-outs stand apart in the source and are kept apart here.
Key:
[1] = system: CFA-induced thermal hyperalgesia; test: Complete Freund's Adjuvant (CFA)-induced hyperalgesia, radiant heat; type: in vivo, Sprague-Dawley rats; settings: FIG. 1, numbers not given
[2] = target: N-type calcium channel (α1B (Cav2.2), β3 and α2δ subunits) in stable HEK cell line (Homo sapiens (Human), UniProt Q00975); test: Functional assay (FDSS calcium mobilization): antagonism of N-type calcium channel; type: cell-based
Method: A stable cell line (HEK parent) co-expressing the α1B (Cav2.2), β3 and α2δ subunits of the N-type calcium channel subunits was used. These cells were routinely grown as monolayers in low glucose-containing Dulbecco's Modified Eagle Medium supplemented with 10% FBS, 2 mM L-glutamine, 100 I.U./mL penicillin, 100 μg/mL streptomycin, 400 μg/mL G418 and 200 μg/mL Zeocin (split ratio=1:5). Cells were maintained in 5% CO2 at 37° C. Compounds of Formula (I) were prepared as 10 mM stocks in DMSO from neat compound, if available. Otherwise, the 5 or 10 mM DMSO stock solutions provided in-house were used.
Calcium mobilization responses to KCl depolarization were evaluated by measuring the intensity of calcium-mediated fluorescent signal in the presence of BD Calcium Assay Dye (BD Biosciences, Franklin Lakes, N.J., U.S.A.), utilizing a Functional Drug Screening System (FDSS) by Hamamatsu Corporation (Bridgewater, N.J. U.S.A.).
Twenty-four hr prior to assay, cells were seeded in clear-base poly-D-lysine-coated 384-well plates (BD Biosciences) at a density of 5,000 cells per well in culture medium and grown overnight in 5% CO2 at 37° C. On the day of assay, growth media were removed, and cells were loaded with BD calcium assay dye (BD Biosciences) for 35 min at 37° C. under 5% CO2 and then for 25 min at room temp. Utilizing the FDSS, cells were exposed to representative compounds of Formula (I) at varying concentrations, and intracellular calcium was measured for 5 min prior to the addition of 50 mM KCl for an additional 3 min of measurement.
IC50 values for representative compounds of Formula (I) were determined from six-point concentration-response experiments and represent the concentration of said compound required to inhibit 50% of the maximal response. Maximal fluorescence intensity (FI) achieved upon addition of 50 mM KCl was exported from the FDSS software and further analyzed using GraphPad Prism 3.02 (Graph Pad Software Inc., San Diego, Calif., U.S.A.). Data were normalized to the maximum average counts from quadruplicate wells for each condition in the presence of 50 mM KCl and to the minimum average counts in the presence of buffer. Theoretical curves were generated using nonlinear regression curve-fitting analysis of either sigmoidal concentration-response or sigmoidal concentration-response (variable slope), and the IC50 values with the best-fit curve determined by GraphPad Prism were reported.

N-type calcium channel = N-type calcium channel (Homo sapiens (Human), UniProt Q00975); test: Automated electrophysiology assay (QPatch-HT whole-cell patch clamp); type: cell-based
Method: Cells were grown in T175 flasks to 50%-90% confluence. At the time of use, cells were enzymatically treated with Detachin (Genlantis, San Diego, Calif. USA), centrifuged, rinsed, and resuspended in 293 SFM II media (Life Technologies, Grand Island, N.Y. U.S.A.) supplemented with 25 mM HEPES (Sigma-Aldrich, St. Louis, Mo. U.S.A.) to a concentration of 2-3×10^6 cells/mL. Cells were added to the automated cell preparation station on the QPatch-HT (Sophion Biosciences, North Brunswick, N.J. U.S.A.), and following a 10- to30-min recovery period with gentle stirring, the assay protocol was initiated. During the automated cell preparation, cells were collected, centrifuged and resuspended in an extracellular (EC) solution containing 132 mM NaCl, 1.8 mM CaCl2, 5.4 mM KCl, 0.8 mM MgCl2, 10 mM glucose, and 10 mM HEPES (pH=7.4), adjusted with sucrose to approximately 315 m0sm. The QPlate was primed with an intracellular solution containing 135 mM CsCl, 10 mM EGTA, 4 MgATP, 0.3 NaGTP, and 20 mM HEPES (pH=7.2), adjusted to approximately 290 m0sm with deionized water and the EC solution. Cells were added to the prepared QPlate wells by robotic pipettes of the QPatch-HT.
For cells determined to be in stable whole-cell patch clamp, the EC solution was replaced with a barium (Ba)/triethylammonium (TEA) solution containing 140 mM TEA-Cl, 10 mM BaCl2, 0.8 mM MgCl2, 10 mM glucose and 10 mM HEPES (pH=7.4). High (40 mM) BaCl2 concentrations were made with adjustments to TEA-Cl (90 mM) to maintain the osmolarity. From a resting potential of −80 mV, a train of depolarizing pulses (15 pulses at 5 Hz, +20 mV) was delivered to the cell once every 30 sec for […], and the resulting currents were measured during a control period (no compound). This protocol was repeated for each subsequent addition of control buffer with or without compound (three periods total, each with four trains). The current generated in the 1st and 15th pulses of the last train of each period in the presence of each drug concentration was normalized to the current generated during the control period at the respective pulses (representing low- and high-frequency stimulation, respectively). Data from both the second and third drug application periods were analyzed for each cell. A final addition of Ba/TEA solution containing 60-100 μM CdCl2 was made to block all N-type current and to “zero” the currents for each cell. All buffer/compound additions were made using a “spitting” feature of the QPatch-HT, which added three repetitions of 5 μL solution at the beginning of each recording period.
To examine closed-state inactivation, cells were subjected to a channel-activating 50-msec depolarizing step pulse from −80 to +10 mV, followed by a 5-sec nonactivating step to voltages ranging from −130 to −60 mV in 10 mV increments and then a 50-ms step from −80 to +10 mV to assess the remaining current. Currents from the activating voltage pulse were normalized to the peak value of the test pulse following the −130 mV step and fit to a Boltzman equation to obtain the V1/2. Roscovitine (Sigma-Aldrich) was prepared as a 100 mM stock in dimethyl sulfoxide and diluted to the indicated working concentrations. […]. Compounds of Formula (I) were diluted first into dimethyl sulfoxide and then into 10% pluronic F-127 in water (Life Technologies), sonicated for 1 min and diluted into EC buffer. Vehicle controls were run in parallel in all experiments.
Unless otherwise indicated, statistics for comparing among electrophysiological results utilized a one-way analysis of variance with Fisher's least squares determination test for pair-wise comparison.

N-type calcium channel (α1B (Cav2.2), β3 and α2δ subunits) in stable HEK cell line, sequence (Q00975 whole entry): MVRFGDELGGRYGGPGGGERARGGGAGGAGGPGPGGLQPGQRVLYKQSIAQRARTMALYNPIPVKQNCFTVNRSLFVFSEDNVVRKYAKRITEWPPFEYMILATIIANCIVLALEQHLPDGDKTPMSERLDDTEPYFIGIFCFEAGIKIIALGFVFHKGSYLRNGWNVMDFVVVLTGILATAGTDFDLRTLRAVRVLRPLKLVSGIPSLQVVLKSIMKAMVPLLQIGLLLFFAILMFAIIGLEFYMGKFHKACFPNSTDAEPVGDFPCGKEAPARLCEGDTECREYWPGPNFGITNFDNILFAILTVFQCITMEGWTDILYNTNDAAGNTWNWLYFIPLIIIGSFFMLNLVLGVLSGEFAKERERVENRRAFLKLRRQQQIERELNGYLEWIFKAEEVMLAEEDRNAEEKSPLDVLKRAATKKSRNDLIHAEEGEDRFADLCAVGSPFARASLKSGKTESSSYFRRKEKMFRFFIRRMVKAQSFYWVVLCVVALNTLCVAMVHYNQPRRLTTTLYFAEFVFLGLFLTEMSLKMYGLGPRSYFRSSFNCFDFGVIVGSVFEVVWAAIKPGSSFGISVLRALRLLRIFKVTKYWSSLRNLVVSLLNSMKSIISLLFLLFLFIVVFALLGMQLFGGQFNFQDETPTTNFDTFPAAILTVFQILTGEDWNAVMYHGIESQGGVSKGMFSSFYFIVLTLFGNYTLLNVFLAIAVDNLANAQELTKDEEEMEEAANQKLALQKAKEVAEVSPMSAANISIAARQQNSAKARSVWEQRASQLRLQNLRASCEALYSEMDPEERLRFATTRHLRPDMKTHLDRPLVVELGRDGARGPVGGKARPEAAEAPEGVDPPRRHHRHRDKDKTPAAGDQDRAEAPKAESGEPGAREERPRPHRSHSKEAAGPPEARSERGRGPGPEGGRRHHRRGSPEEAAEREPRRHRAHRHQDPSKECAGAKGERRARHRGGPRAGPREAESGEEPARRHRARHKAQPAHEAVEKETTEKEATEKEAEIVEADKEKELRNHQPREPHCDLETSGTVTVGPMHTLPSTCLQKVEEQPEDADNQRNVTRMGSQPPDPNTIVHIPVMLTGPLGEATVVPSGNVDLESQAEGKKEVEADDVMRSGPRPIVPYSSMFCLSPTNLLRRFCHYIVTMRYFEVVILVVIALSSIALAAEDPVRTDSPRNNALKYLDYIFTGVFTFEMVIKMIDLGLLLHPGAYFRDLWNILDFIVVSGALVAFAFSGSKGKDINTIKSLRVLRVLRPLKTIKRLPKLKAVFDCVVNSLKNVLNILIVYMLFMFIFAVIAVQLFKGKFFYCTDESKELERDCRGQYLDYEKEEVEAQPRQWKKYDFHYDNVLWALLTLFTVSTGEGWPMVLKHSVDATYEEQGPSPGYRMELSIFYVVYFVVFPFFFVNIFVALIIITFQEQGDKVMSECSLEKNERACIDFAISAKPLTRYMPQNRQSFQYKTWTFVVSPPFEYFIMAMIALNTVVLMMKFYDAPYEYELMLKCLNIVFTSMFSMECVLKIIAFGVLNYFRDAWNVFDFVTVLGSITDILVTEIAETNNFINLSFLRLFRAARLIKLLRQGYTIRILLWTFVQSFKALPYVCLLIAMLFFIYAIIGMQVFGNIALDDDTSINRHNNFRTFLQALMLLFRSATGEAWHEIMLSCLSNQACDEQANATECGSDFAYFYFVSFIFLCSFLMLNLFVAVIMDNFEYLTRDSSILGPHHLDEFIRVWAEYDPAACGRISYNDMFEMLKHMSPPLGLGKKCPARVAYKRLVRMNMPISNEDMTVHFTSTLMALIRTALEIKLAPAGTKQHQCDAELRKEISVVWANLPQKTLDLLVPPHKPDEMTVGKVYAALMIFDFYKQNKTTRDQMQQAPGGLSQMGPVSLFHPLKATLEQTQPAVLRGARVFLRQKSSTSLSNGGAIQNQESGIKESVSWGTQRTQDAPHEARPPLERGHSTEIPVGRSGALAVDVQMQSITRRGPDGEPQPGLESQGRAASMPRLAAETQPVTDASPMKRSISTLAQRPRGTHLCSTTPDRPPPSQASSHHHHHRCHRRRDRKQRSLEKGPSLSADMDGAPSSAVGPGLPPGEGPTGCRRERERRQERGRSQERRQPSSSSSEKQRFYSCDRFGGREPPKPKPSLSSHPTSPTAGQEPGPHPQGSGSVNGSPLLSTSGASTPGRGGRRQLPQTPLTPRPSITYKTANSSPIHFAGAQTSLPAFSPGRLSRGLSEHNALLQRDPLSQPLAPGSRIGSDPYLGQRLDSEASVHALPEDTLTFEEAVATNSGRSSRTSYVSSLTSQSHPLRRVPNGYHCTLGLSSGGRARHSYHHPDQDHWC
N-type calcium channel (α1B (Cav2.2), β3 and α2δ subunits) in stable HEK cell line, sequence (P54284 whole entry partner): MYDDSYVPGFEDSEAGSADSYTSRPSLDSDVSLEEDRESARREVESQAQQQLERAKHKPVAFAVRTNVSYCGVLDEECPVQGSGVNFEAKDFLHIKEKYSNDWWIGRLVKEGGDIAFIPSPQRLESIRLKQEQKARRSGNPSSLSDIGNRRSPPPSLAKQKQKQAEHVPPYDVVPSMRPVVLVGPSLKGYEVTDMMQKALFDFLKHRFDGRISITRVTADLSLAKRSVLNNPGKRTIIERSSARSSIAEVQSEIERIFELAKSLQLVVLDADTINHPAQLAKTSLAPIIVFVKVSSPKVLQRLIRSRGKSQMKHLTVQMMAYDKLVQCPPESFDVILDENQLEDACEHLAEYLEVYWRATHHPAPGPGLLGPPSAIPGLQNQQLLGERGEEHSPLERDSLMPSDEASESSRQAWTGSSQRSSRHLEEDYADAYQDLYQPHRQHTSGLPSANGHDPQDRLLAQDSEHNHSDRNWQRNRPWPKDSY
N-type calcium channel (α1B (Cav2.2), β3 and α2δ subunits) in stable HEK cell line, sequence (P54289 25-1103 partner): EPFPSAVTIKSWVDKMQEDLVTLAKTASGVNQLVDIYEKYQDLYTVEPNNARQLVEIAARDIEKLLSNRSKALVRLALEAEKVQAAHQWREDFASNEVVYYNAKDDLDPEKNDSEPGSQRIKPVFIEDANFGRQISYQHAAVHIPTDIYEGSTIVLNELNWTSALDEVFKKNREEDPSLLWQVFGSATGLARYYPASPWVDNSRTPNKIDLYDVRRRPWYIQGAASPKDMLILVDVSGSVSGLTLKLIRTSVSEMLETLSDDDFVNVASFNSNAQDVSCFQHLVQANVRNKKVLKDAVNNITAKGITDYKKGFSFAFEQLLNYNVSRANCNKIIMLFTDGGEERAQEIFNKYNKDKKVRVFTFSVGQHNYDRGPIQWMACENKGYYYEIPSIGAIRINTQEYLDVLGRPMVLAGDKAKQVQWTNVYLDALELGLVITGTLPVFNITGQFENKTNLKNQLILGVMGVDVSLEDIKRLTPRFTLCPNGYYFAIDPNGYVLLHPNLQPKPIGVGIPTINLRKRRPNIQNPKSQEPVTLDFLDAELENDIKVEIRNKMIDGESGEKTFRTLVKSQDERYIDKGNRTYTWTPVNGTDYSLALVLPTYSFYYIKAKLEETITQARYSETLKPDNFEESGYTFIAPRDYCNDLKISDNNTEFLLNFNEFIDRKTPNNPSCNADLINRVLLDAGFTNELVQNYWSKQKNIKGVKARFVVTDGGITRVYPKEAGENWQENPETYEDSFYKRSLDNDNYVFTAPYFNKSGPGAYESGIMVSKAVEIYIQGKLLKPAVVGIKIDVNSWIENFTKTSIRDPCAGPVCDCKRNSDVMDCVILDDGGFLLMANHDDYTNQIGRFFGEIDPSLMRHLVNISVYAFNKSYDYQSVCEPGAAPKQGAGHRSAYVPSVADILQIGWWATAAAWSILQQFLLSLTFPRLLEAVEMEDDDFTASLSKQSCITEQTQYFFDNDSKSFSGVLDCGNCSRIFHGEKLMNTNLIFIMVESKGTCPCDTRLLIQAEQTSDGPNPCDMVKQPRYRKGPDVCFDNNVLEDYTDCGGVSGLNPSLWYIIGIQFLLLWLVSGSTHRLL
N-type calcium channel, sequence (Q00975 whole entry): as the sequence (Q00975 whole entry) above
N-type calcium channel, sequence (P54284 whole entry partner): as the sequence (P54284 whole entry partner) above
N-type calcium channel, sequence (P54289 25-1103 partner): as the sequence (P54289 25-1103 partner) above

## COc1ccccc1-n1nc(OC2CC(C)(C)OC(C)(C)C2)cc1-c1ccc(Cl)cc1 [Compound 23, 5-(4-chlorophenyl)-1-(2-methoxyphenyl)-3-((2,2,6,6-tetramethyltetrahydro-2H-pyran-4-yl)oxy)-1H-pyrazole]
[1]
  effect in rat CFA radiant heat model of inflammatory pain: antihyperalgesic effect
[2]; HEK293, FDSS, 0.33 μM compound
  inhibition at 0.33 µM: 96%
[2]; KCl (50 mM) depolarization, six-point concentration-response
  IC50: 7.6 nM
N-type calcium channel; high-frequency stimulation (15th pulse of train, 5 Hz), read-out: QPatch at High Frequency % Inhibition at 0.1 μM
  inhibition at 0.1 µM: 37%
N-type calcium channel; low-frequency stimulation (1st pulse of train), read-out: QPatch at Low Frequency % Inhibition at 0.1 μM
  inhibition at 0.1 µM: 11%
